Counter-ions that a name gives are not always drawn. Like-named read-outs stand apart in the source and are kept apart here.
Target: T1, β-glucuronidase (Sigma) (EC 3.2.1.31) from E. coli (Escherichia coli, UniProt P05804)
T1 construct: purchased Sigma G-7396
Experiment: biochemical
Details: for remaining activity at 0.001 %: test concentration 0.001 %
Protocol: Investigation of the inhibitory action of the β-glucuronidase inhibitors (in vitro)
Since the skin-relevant β-glucuronidase was not available, a commercially available β-glucuronidase (Sigma) (EC 3.2.1.31) from E. coli served as the model enzyme for testing the inhibitory action of the inhibitors used according to the invention. The tests were carried out with the β-glucuronidase enzyme assay product no. G-7396 from Sigma in accordance with the instructions in the Sigma Quality Control Test Procedure datasheet.
For the evaluation, the phenolphthalein formed from the substrate phenolphthalein glucuronide by β-glucuronidase was determined spectrophotometrically (λ=540 nm).
The reaction solutions of 300 μl, which were temperature-controlled at a reaction temperature of 37° C., comprised 30 mM potassium phosphate buffer with 0.04% of albumin (pH 6.8), 0.5 mM phenolphthalein glucuronide (substrate) and a starting concentration of 40 U/ml (=12 U) of β-glucuronidase. The unit U of the enzyme activity was defined such that 1 U of β-glucuronidase hydrolyses 1.0 μmol of phenolphthalein glucuronide per minute at pH 6.8 and 37° C.
The reaction was started by addition of the enzyme and incubation was carried out for 30 min at 37° C. The reaction was then stopped with 3.5 times the volume of a 200 mM glycine solution of pH 10.4. In the photometric end point determination, the amount of phenolphthalein liberated was determined at the wavelength of λ=540 nm and at 37° C.
In batches with inhibitor, 0.2 ml of the appropriately concentrated reagents and 0.1 ml of the inhibitor, dissolved in water, were mixed. In each case a concentration series of the inhibitor was tested here. The absorption (A) here is a measure of the activity of the enzyme (ΔA). The activity of the enzyme in the absence of an inhibitor (ΔA1) was set at 100% as the reference. Under analogous conditions, the activities were determined in the presence of an inhibitor (ΔA2). The inhibitory action of the inhibitor was shown as the residual activity of the enzyme activity, calculated in accordance with the equation 100%−(ΔA2)/(ΔA1)%.

[1] = 0.5 h, concentration in the test 0.01 % (head of grid column 4, first sub-table), 30 min, 37° C., pH 6.8, read-out: Residual activity
[2] = 0.5 h, test concentration 0.01 %, 30 min, 37° C., pH 6.8, read-out: Residual activity
[3] = 0.5 h, test concentration 0.10 %, 30 min, 37° C., pH 6.8, read-out: Residual activity
[4] = 0.5 h, test concentration 1.00 %, 30 min, 37° C., pH 6.8, read-out: Residual activity
[5] = test concentration 0.10 %, 30 min, 37° C., pH 6.8
[6] = test concentration 0.50 %, 30 min, 37° C., pH 6.8
[7] = 0.5 h, pH 6.8, read-out: Residual activity
[8] = 0.5 h, 30 min, 37° C., pH 6.8, read-out: Residual activity
[9] = test concentration 0.01 %, 30 min, 37° C., pH 6.8
[10] = test concentration 1.00 %, 30 min, 37° C., pH 6.8
[11] = test concentration 0.08 %, 30 min, 37° C., pH 6.8
[12] = test concentration 2.00 %, 30 min, 37° C., pH 6.8

T1 sequence (P05804 whole entry): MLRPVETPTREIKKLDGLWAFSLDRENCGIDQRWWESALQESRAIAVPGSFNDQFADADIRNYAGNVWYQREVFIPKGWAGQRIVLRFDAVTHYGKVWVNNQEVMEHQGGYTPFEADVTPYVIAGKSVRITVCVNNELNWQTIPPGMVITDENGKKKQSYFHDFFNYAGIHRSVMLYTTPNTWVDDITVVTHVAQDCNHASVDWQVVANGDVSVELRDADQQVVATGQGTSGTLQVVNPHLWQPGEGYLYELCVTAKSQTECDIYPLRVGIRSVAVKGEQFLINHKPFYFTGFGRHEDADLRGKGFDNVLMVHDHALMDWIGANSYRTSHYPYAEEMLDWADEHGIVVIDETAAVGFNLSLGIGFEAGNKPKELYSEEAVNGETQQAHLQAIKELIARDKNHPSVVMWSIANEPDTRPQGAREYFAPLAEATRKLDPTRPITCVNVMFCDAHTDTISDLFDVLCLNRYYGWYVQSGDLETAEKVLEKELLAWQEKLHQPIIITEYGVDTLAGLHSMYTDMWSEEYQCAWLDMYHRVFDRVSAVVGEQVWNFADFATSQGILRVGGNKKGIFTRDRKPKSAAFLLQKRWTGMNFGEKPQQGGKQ

C=C(C)C1CCC(C)CC1O (stereo not shown) [Coolact P, 5-methyl-2-(1-methylvinyl)cyclohexan-1-ol]
remaining activity at 0.0005 % (0.5 h, concentration in the test 0.0005 % (head of grid column 3, first sub-table), 30 min, 37° C., pH 6.8, read-out: Residual activity): 184% | remaining activity at 0.01 % [1]: 38%

O.O.O.O.O.[Cl][Cu][Cl] [CuCl2 × 5H2O, CuCl2·5 H2O]
Residual activity (test concentration 0.000005 %, 30 min, 37° C., pH 6.8): 105% | Residual activity (test concentration 0.00005 %, 30 min, 37° C., pH 6.8): 39% | Residual activity (test concentration 0.00025 %, 30 min, 37° C., pH 6.8): 7%

CC(O)(P(=O)(O)O)P(=O)(O)O [Dequest 2016D, 1-Hydroxyethane-1,1-diphosphonic acid tetrasodium salt]
remaining activity at 8e-05 % (0.5 h, concentration in the test 0.00008 % (head of grid column 1, first sub-table), 30 min, 37° C., pH 6.8, read-out: Residual activity): 99% | remaining activity at 0.0008 % (0.5 h, concentration in the test 0.0008 % (head of grid column 2, first sub-table), 30 min, 37° C., pH 6.8, read-out: Residual activity): 95% | remaining activity at 0.01 % [1]: 52%

O=C(O)C(O)c1ccc(O)cc1 (stereo not shown) [Dermosoft HMA, p-Hydroxymandelic acid sodium salt]
remaining activity at 0.01 % [2]: 110% | remaining activity at 0.1 % [3]: 99% | remaining activity at 1 % [4]: 56%

C=CCc1ccc(O[C@@H]2O[C@H](CO)[C@@H](O)[C@H](O)[C@H]2O)c(OC)c1 [Eugenyl Glucoside, 2-methoxy-4-(2-propenyl)phenyl β-D-glucoside]
Residual activity [5]: 53% | Residual activity [6]: 12%

NCC(=O)O [Glycine, glycine]
remaining activity at 0.01 % [7]: 95% | remaining activity at 0.1 % [7]: 91% | remaining activity at 0.5 % [7]: 70% | remaining activity at 1 % [7]: 52% | remaining activity at 2 % [7]: 32%

CC(C)c1cccc(=O)c(O)c1 [Hinokitiol (DMSO), 2-hydroxy-4-isopropyl-2,4,6-cycloheptatrien-1-one]
remaining activity at 0.001 % [8]: 112% | remaining activity at 0.01 % [2]: 156% | remaining activity at 0.1 % [3]: 30% | remaining activity at 1 % [4]: 2%

O=C([O-])C(O)C(O)C(O)C(O)C(O)CO.O=C([O-])C(O)C(O)C(O)C(O)C(O)CO.[Mg+2] (stereo not shown) [Magnesium glucoheptonate, magnesium glucoheptonate]
Residual activity [9]: 55% | Residual activity [5]: 50%

C[C@@H]1O[C@@H](O[C@H]2[C@H](Oc3cc(O)c4c(c3)O[C@H](c3ccc(O)cc3)CC4=O)O[C@H](CO)[C@@H](O)[C@@H]2O)[C@H](O)[C@H](O)[C@H]1O [Naringin, naringenin 7-rhamnoglucoside]
remaining activity at 0.001 % [8]: 103% | remaining activity at 0.01 % [2]: 94% | remaining activity at 0.1 % [3]: 47%

OCCc1ccccc1 [Phenylethyl alcohol, 2-phenylethyl alcohol]
remaining activity at 0.01 % [2]: 121% | remaining activity at 0.1 % [3]: 227% | remaining activity at 1 % [4]: 49%

O=P(O)(O)O[C@H]1[C@H](OP(=O)(O)O)[C@@H](OP(=O)(O)O)[C@H](OP(=O)(O)O)[C@@H](OP(=O)(O)O)[C@H]1OP(=O)(O)O [Phytic acid, myo-inositol-hexaphosphoric acid]
remaining activity at 0.01 % [2]: 90% | remaining activity at 0.05 % (0.5 h, test concentration 0.05 %, 30 min, 37° C., pH 6.8, read-out: Residual activity): 86% | remaining activity at 0.1 % [3]: 71% | remaining activity at 0.38 % (0.5 h, test concentration 0.38 %, 30 min, 37° C., pH 6.8, read-out: Residual activity): 68% | remaining activity at 1 % [4]: 16%

CC(O)C(=O)[O-].[K+] (stereo not shown) [Purasal P Hipure 60, Potassium lactate]
Residual activity [9]: 96% | Residual activity [5]: 88% | Residual activity [10]: 52%

CC(=O)CCc1ccc(O[C@@H]2O[C@H](CO)[C@@H](O)[C@H](O)[C@H]2O)cc1 [Raspberry ketone glucoside, 4-(γ-ketobutyl)phenyl β-D-glucoside]
Residual activity [6]: 125% | Residual activity [10]: 49%

O=C(/C=C/c1ccc(O)c(O)c1)O[C@H](Cc1ccc(O)c(O)c1)C(=O)O [Rosemary acid, rosemary acid]
Residual activity (test concentration 0.0008 %, 30 min, 37° C., pH 6.8): 48% | Residual activity (test concentration 0.008 %, 30 min, 37° C., pH 6.8): 15% | Residual activity [11]: 19% | Residual activity (test concentration 8 · 10^−5 %, 30 min, 37° C., pH 6.8): 86%

O=C([O-])CN(CC(=O)[O-])CC(=O)[O-].[Na+].[Na+].[Na+] [Trilon A, Nitrilotriacetic acid 3 Na, reference compound]
Residual activity [9]: 100% | Residual activity [5]: 90% | Residual activity [6]: 71% | Residual activity [10]: 59% | Residual activity [12]: 52%

O=C([O-])CN(CCN(CC(=O)[O-])CC(=O)[O-])CC(=O)[O-].[Na+].[Na+].[Na+].[Na+] [Trilon B, EDTA-4 Na, reference compound]
Residual activity [9]: 108% | Residual activity [5]: 86% | Residual activity [6]: 57% | Residual activity [10]: 51% | Residual activity [12]: 43%

CC(C(=O)[O-])N(CC(=O)[O-])CC(=O)[O-].[Na+].[Na+].[Na+] (stereo not shown) [Trilon M, Methylglycinediacetic acid trisodium salt]
Residual activity [9]: 99% | Residual activity [5]: 91% | Residual activity [10]: 55%

O=C([O-])CC(O)(CC(=O)[O-])C(=O)[O-].[K+].[K+].[K+] [Tripotassium citrate, tripotassium citrate]
Residual activity [9]: 97% | Residual activity [5]: 86% | Residual activity [10]: 47%

CC(O)C(=O)[O-].CC(O)C(=O)[O-].[Zn+2] (stereo not shown) [Zinc lactate, zinc lactate]
Residual activity (test concentration 0.005 %, 30 min, 37° C., pH 6.8): 77% | Residual activity (test concentration 0.05 %, 30 min, 37° C., pH 6.8): 55% | Residual activity [11]: 30% | Residual activity [6]: 3%

O=C1CC[C@@H](C(=O)[O-])N1.O=C1CC[C@@H](C(=O)[O-])N1.[Zn+2] [Zincidone]
Residual activity [9]: 79% | Residual activity [5]: 8% | Residual activity [10]: 3%

Copper gluconate [Givobio GCU]
Residual activity [9]: 81% | Residual activity [5]: 50%

zinc gluconate
Residual activity [9]: 88% | Residual activity [5]: 54% | Residual activity (test concentration 0.25 %, 30 min, 37° C., pH 6.8): 3% | Residual activity [10]: 1%
